Read-outs that look alike come from different tables or passages of the source.
Tests used:
[1] = system: HBV rcDNA in HepDE19 cells; assay: HepDE19 cell culture system, rcDNA quantitation using bDNA assay, MacSynergy II; assay type: cell-based, human hepatoma cell line; settings: for AVERAGE % INHIBITION: GLS-4 0 μM; for EC50: Hepatitis B virus
Description: In vitro combination studies were conducted using the method of Prichard and Shipman (Prichard M N, and Shipman C Jr., Antiviral Research, 1990, 14 (4-5), 181-205; and Prichard M N, et. al., MacSynergy II). HepDE19 cell culture system is a HepG2 (human hepatocarcinoma) derived cell line that supports HBV DNA replication and cccDNA formation in a tetracycline (Tet)-regulated manner and produces HBV rcDNA and a detectable reporter molecule dependent on the production and maintenance of cccDNA (Guo et al 2007. J. Virol 81:12472-12484). HepDE19 (50,000 cells/well) were plated in 96 well collagen-coated tissue-culture treated microtiter plates in DMEM/F12 medium supplemented with 10% fetal bovine serum, 1% penicillin-streptomycin and 1 μg/ml tetracycline and incubated in a humidified incubator at 37° C. and 5% CO2 overnight. Next day, the cells were switched to fresh medium without tetracycline and incubated for 4 hrs at 37° C. and 5% CO2. […] The two inhibitors were tested both singly as well as in combinations in a checkerboard fashion such that each concentration of inhibitor A was combined with each concentration of inhibitor B to determine their combination effects on inhibition of rcDNA production. Following a 7 day-incubation of cells with compound combinations, the level of rcDNA present in the inhibitor-treated wells was measured using a Quantigene 2.0 bDNA assay kit (Affymetrix, Santa Clara, Calif.) with HBV specific custom probe set and manufacturers instructions. […] The RLU data from the single compound treated cells were analyzed using XL-Fit module in Microsoft Excel to determine EC50 values using a 4-parameter curve fitting algorithm. Concurrently, the effect of compounds on cell viability was assessed using replicate plates, plated at a density of 5,000 cells/well and incubated for 4 days, to determine the ATP content as a measure of cell viability using the cell-titer glo reagent (CTG; Promega Corporation, Madison, Wis.) as per manufacturer's instructions.
In vitro combination studies were conducted using the method of Prichard and Shipman (Prichard M N, Shipman C, Jr., Antiviral Res, 14, 181-205 (1990)). The HepDE19 cell line was developed as described in Guo et al. (Guo et al., J Virol, 81, 12472-12484 (2007)). It is a human hepatoma cell line stably transfected with the HBV genome, and which can express HBV pregenomic RNA and support HBV rcDNA (relaxed circular DNA) synthesis in a tetracycline-regulated manner. HepDE19 cells were plated in 96 well tissue-culture treated microtiter plates in DMEM/F12 medium supplemented with 10% fetal bovine serum+1% penicillin-streptomycin without tetracycline and incubated in a humidified incubator at 37° C. and 5% CO2 overnight. […] The two inhibitors were tested both singly as well as in combinations in a checkerboard fashion such that each concentration of inhibitor A was combined with each concentration of inhibitor B to determine their combination effects on inhibition of rcDNA production. Following a 48 hour-incubation, the level of rcDNA present in the inhibitor-treated wells was measured using a bDNA assay (Affymetrix) with HBV specific custom probe set and manufacturers instructions. […] Concurrently, the effect of inhibitor combinations on cell viability was assessed using replicate plates that were used to determine the ATP content as a measure of cell viability using the Cell-TiterGlo reagent (Promega) as per manufacturer's instructions.
In vitro combination studies were conducted using the method of Prichard and Shipman (1990) (Prichard M N, Shipman C, Jr. 1990. A three-dimensional model to analyze drug-drug interactions. Antiviral Res 14:181-205 AND Prichard M N. 1992. MacSynergy II, University of Michigan).

[2] = system: D type HBV in primary human hepatocytes; assay: microbe, parasite or virus in culture; assay type: cell-based; settings: Hepatitis B virus, Hepatocyte
Method in brief: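 Percoll-purified hepatocytes infected with genotype D HBV on day 1, then treated from day 2 with compound refreshed every other day; supernatant HBV DNA quantified by qPCR on day 8. Single agents run at 7 concentrations, 3-fold dilutions, triplicate; combinations in 5×5 matrix, analysed with MacSynergy.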

[3] = system: D type HBV in primary human hepatocytes (HBeAg); assay: microbe, parasite or virus in culture; assay type: cell-based; settings: Hepatitis B virus, Hepatocyte
Method in brief: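 Primary hepatocytes isolated by liver perfusion and Percoll-purified were infected with genotype D HBV one day post-seeding. Compounds were added on day 2 (7 concentrations, 3-fold dilutions, triplicate), with medium refreshed every other day. Day-8 supernatant HBeAg was measured by ELISA and expressed as % inhibition versus DMSO control.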

`CC[C@@H](C)NS(=O)(=O)c1ccc(F)c(C(=O)Nc2ccc(F)c(F)c2)c1` [Compound 3] was tested, and the “AVERAGE % INHIBITION” value ([1]; COMPOUND 3 0.040 μM) was 11.14%, the “AVERAGE % INHIBITION” value ([1]; COMPOUND 3 0.110 μM) was 19.99% and the “AVERAGE % INHIBITION” value ([1]; COMPOUND 3 0.330 μM) was 56.68%. For the same molecule, the “AVERAGE % INHIBITION” value ([1]; COMPOUND 3 1.000 μM) was 86.87%, the “AVERAGE % INHIBITION” value ([1]; COMPOUND 3 3.000 μM) was 94.49% and the EC50 ([1]; HepDE19, rcDNA, bDNA assay, DE19 cells, read-out: Inhibitor A EC50) was 272 nM. It also gave an EC50 ([1]; HepDE19, rcDNA by bDNA assay, single agent, read-out: INHIBITOR A EC50) of 454 nM, an EC50 ([2]; 456 h, HBV DNA endpoint, PHH, determined in an earlier separate experiment (Table 19d), read-out: Inhibitor B EC50) of 876 nM and an EC50 ([2]; 576 h, PHH, determined in an earlier separate experiment (Table 24d), read-out: Inhibitor B EC50 HBV DNA) of 876 nM. The inhibition at 0.06173 µM ([2]; read-out: AVERAGE % […] DNA, COMPOUND 3 61.73 nM alone (Table 19a)) was -28.1%, the inhibition at 0.06864 µM ([2]; read-out: AVERAGE % […] DNA, COMPOUND 3 68.64 nM alone (Table 20a)) was -2.79% and the inhibition at 0.18519 µM ([2]; read-out: AVERAGE % […] DNA, COMPOUND 3 185.19 nM alone (Table 19a), read-out: AVERAGE % INHIBITION HBV DNA) was -25.9%. For the same molecule, the inhibition at 0.20593 µM ([2]; read-out: AVERAGE % […] DNA, COMPOUND 3 205.93 nM alone (Table 20a)) was -5.02%, the inhibition at 0.55556 µM ([2]; read-out: AVERAGE % […] DNA, COMPOUND 3 555.56 nM alone (Table 19a), read-out: AVERAGE % INHIBITION HBV DNA) was -3.32% and the inhibition at 0.61778 µM ([2]; read-out: AVERAGE % […] DNA, COMPOUND 3 617.78 nM alone (Table 20a)) was 34.8%. It also gave an inhibition at 1.66667 µM ([2]; read-out: AVERAGE % […] DNA, COMPOUND 3 1666.67 nM alone (Table 19a)) of 25.9%, an inhibition at 1.85333 µM ([2]; read-out: AVERAGE % […] DNA, COMPOUND 3 1853.33 nM alone (Table 20a)) of 66.4% and an inhibition at 5 µM ([2]; read-out: AVERAGE % […] DNA, COMPOUND 3 5000.00 nM alone (Table 19a), read-out: AVERAGE % INHIBITION HBV DNA) of 74.8%. The inhibition at 5.56 µM ([2]; read-out: AVERAGE % […] DNA, COMPOUND 3 5560.00 nM alone (Table 20a)) was 85.3%, the inhibition at 61.73 µM ([2]; read-out: AVERAGE % […] DNA, COMPOUND 3 61.73 μM alone) was -11.7% and the inhibition at 185.19 µM ([2]; read-out: AVERAGE % […] DNA, COMPOUND 3 185.19 μM alone) was 4.14%. It also gave an inhibition at 555.56 µM ([2]; read-out: AVERAGE % […] DNA, COMPOUND 3 555.56 μM alone) of 26.5%, an inhibition at 1666.67 µM ([2]; read-out: AVERAGE % […] DNA, COMPOUND 3 1666.67 μM alone) of 69.4% and an inhibition at 5000 µM ([2]; read-out: AVERAGE % […] DNA, COMPOUND 3 5000.00 μM alone) of 84.3%. It also gave an EC50 ([2]; HBV DNA, determined in an earlier separate experiment, read-out: Inhibitor EC50) of 876 nM, an EC50 ([3]; 456 h, read-out: Inhibitor B EC50) of 8850 nM and an EC50 ([3]; 576 h, read-out: Inhibitor B EC50 HBeAg) of 8580 nM. It also gave an inhibition at 0.06173 µM ([3]; read-out: AVERAGE % INHIBITION HBeAg, COMPOUND 3 61.73 nM alone) of -11.3%, an inhibition at 0.18519 µM ([3]; read-out: AVERAGE % INHIBITION HBeAg, COMPOUND 3 185.19 nM alone) of -16% and an inhibition at 0.55556 µM ([3]; read-out: AVERAGE % INHIBITION HBeAg, COMPOUND 3 555.56 nM alone) of -5.39%. The inhibition at 1.66667 µM ([3]; read-out: AVERAGE % INHIBITION HBeAg, COMPOUND 3 1666.67 nM alone) was 2.34%, the inhibition at 5 µM ([3]; read-out: AVERAGE % INHIBITION HBeAg, COMPOUND 3 5000.00 nM alone) was 27.3% and the inhibition at 61.73 µM ([3]; read-out: AVERAGE % INHIBITION HBeAg, COMPOUND 3 61.73 μM alone) was -11.1%. For the same molecule, the inhibition at 185.19 µM ([3]; read-out: AVERAGE % INHIBITION HBeAg, COMPOUND 3 185.19 μM alone) was -4.9%, the inhibition at 555.56 µM ([3]; read-out: AVERAGE % INHIBITION HBeAg, COMPOUND 3 555.56 μM alone) was -1.02% and the inhibition at 0.06859 µM ([3]; read-out: AVERAGE % INHIBITION, TAF 0.00 nM, COMPOUND 3 68.59 nM) was -5.05%. For the same molecule, the inhibition at 0.20576 µM ([3]; read-out: AVERAGE % INHIBITION, TAF 0.00 nM, COMPOUND 3 205.76 nM) was -6.33%, the inhibition at 0.61728 µM ([3]; read-out: AVERAGE % INHIBITION, TAF 0.00 nM, COMPOUND 3 617.28 nM) was 2.77% and the inhibition at 1.85185 µM ([3]; read-out: AVERAGE % INHIBITION, TAF 0.00 nM, COMPOUND 3 1851.85 nM) was 29.7%. It also gave an inhibition at 5.55556 µM ([3]; read-out: AVERAGE % INHIBITION, TAF 0.00 nM, COMPOUND 3 5555.56 nM) of 40.4% and an EC50 ([3]; read-out: Inhibitor EC50) of 8850 nM.

Reference: patent US20220265817A1, “THERAPEUTIC COMPOSITIONS AND METHODS FOR TREATING HEPATITIS B” (priority 2017, published 2022)
